Patent US5691366A, “Nitro compounds, process for preparation thereof and use thereof” (Fujisawa Pharmaceutical Co., Ltd., priority 1991, dated 1997)
Read-outs that look alike come from different tables or passages of the source.

Columns and labels:
[1] = test system: thoracic aorta from male Sprague-Dawley rats; assay: Vasodilating activity in vitro (relaxation of norepinephrine-contracted aortic strips); set-up: species or system rat (male Sprague-Dawley); conditions: rat aorta helical strips contracted by 3.2×10^-8 g/ml norepinephrine, 37° C.
Method: The thoracic aorta from male Sprague-Dawley rats, aged 9-11 weeks, were removed and cut into helical strips after removal of excess fat and connective tissues. The strips were mounted vertically in organ baths containing 25 ml Tyrode solution and isometric tension was measured. The tissue bath solution was maintained at 37° C. and bubbled with a 95% O2 and 5% CO2 gas mixture. After the resting tension was adjusted to 0.5 g, the strips were contracted by 3.2×10^-8 g/ml of norepinephrine (NE). The test compound dissolved in ethanol, polyethylene glycol and distilled water (1:1:2) were added to the organ bath cumulatively.
Then, relaxative activity of test compound was expressed as IC50 value i.e. concentration required to inhibit the contraction response by 50%.

[2] = test system: Mean Arterial Blood Pressure in Anesthetized Rats; assay: Effect on mean arterial blood pressure in anesthetized rats (intravenous); type: in vivo, rat (male Sprague-Dawley); conditions: for inhibition in vivo at 0.1 mg/kg / inhibition in vivo at 0.32 mg/kg / inhibition in vivo at 0.032 mg/kg: Rattus norvegicus, iv, maximal % decrease of mean blood pressure, read-out: Hypotensive effect R max; for Hypotensive effect T 1/2: i.v., time to recover to half of maximal decrease
Method: Male Sprague-Dawley rats, aged 9-12 weeks, were anesthetized with urethane (1.4 g/kg i.p.). A polyethylene cannula filled with heparin solution was inserted into the femoral artery of the rats to measure mean blood pressure. Mean blood pressure was measured with a pressure transducer and recorded on a polygraph. The test compound dissolved in ethanol, polyethylene glycol and distilled water (1:1:2), were administered intraveneously in a volume of 0.25 ml/kg. Intravenous hypothypotensive effects of each compound were expressed as the maximal decrease (R max) and the half time (T 1/2). Briefly, R max was expressed as maximal % change compared to mean blood pressure prior to the administration of compound. T 1/2 was expressed as a time during which the hypotensive effect recovered to half of the maximal decrease.

[3] = test system: human platelet aggregation; assay: Inhibition of human platelet aggregation (anti-platelet aggregation activity); type: cell-based; conditions: human PRP, concentration required to inhibit aggregation by 50%, read-out: ED50 (the source's name)
Method: Inhibitory activity of the nitro compounds of this invention against human platelet aggregation was measured according to the method described below.
Blood was collected from human volunteers. The blood was prevented from coagulation with 1 volume of 3.8% sodium citrate to 9 volumes of blood. Platelet rich plasma (PRP) was prepared by centrifugation of the blood at 1300 rpm for 10 min. at 10° C. The PRP was diluted with platelet poor plasma obtained by further centrifugation of the blood at 3000 rpm for 10 min. The platelet counts in the PRP used for aggregation studies were about 4.0×10^5 platelets/mm^3. Aggregation studies were performed turbidimetrically using NKK HEMATRACER 1. To 225 μl of PRP 25 μl of the test compounds was added and preincubated for 2 min. After preincubation 5 μl of aggregating agents were added to the mixture. Collagen and ADP were used as aggregating agents at the concentrations of 0.5 μg/ml and 2.5 μM, respectively. Activities of the test compounds were expressed as ED50 values i.e. concentrations required to inhibit the platelet aggregation responses by 50%.

[4] = test system: Mean Arterial Blood Pressure in Conscious Rats; assay: Effect on mean arterial blood pressure in conscious rats (oral); type: in vivo, rat (male Sprague-Dawley); conditions: for Hypotensive effect Dur.: time to recover to 5% of maximal decrease; for Hypotensive effect T 1/2: time to recover to half of maximal decrease; for inhibition in vivo at 3.2 mg/kg / inhibition in vivo at 10 mg/kg / inhibition in vivo at 32 mg/kg: Rattus norvegicus, po, maximal % decrease of mean blood pressure, read-out: Hypotensive effect R max
Method: Male Sprague-Dawley rats, aged 9-11 weeks, were anesthetized with ether and a polyethylene cannula filled with heparin solution was inserted into the femoral artery of the rats to measure mean blood pressure. Mean blood pressure was measured with a pressure transducer and recorded on a polygraph. Two hours after operation, the drug suspended in 0.5% methyl cellulose was administered orally in a volume of 5 ml/kg. Oral hypotensive effects of each compound were expressed as the maximal decrease (R max), the half time (T 1/2) and the duration (Dur.). Briefly, R max was expressed as maximal % change compared to mean blood pressure prior to the administration of compound. T 1/2 was expressed as a time during which the hypotensive effect recovered to half of the maximal decrease. Duration was expressed as a time during which the hypotensive effect recovered to 5% of the maximal decrease.

[5] = Homo sapiens, Platelet, Inducer: ADP 2.5 μM

| IC50 ([1]; Rattus norvegicus) | IC50 [1] | Structure (SMILES) | inhibition in vivo at 0.1 mg/kg ([2]; 0.1 mg/kg) | inhibition in vivo at 0.32 mg/kg ([2]; 0.32 mg/kg) | inhibition in vivo at 0.032 mg/kg ([2]; 0.032 mg/kg) | Hypotensive effect T 1/2 ([2]; 0.1 mg/kg) | Hypotensive effect T 1/2 ([2]; 0.32 mg/kg) | also measured |
| --- | --- | --- | --- | --- | --- | --- | --- | --- |
| 10.7 µM |  | CCC(=CC(CNS(=O)(=O)N(C)C)=NO)C(C)[N+](=O)[O-] (single isomer, unassigned) [Example 7 A, N,N-Dimethyl-N'-(4-ethyl-2-hydroxyimino-5-nitro-3-hexen-1-yl)sulfamide] | 31.7% | 42.1% |  | 7.6 min | 5.1 min |  |
|  | 19.4 µM | CCC(=CC(CNS(=O)(=O)N(C)C)=NO)C(C)[N+](=O)[O-] (single isomer, unassigned) [Example 7 B, N,N-Dimethyl-N'-(4-ethyl-2-hydroxyimino-5-nitro-3-hexen-1-yl)sulfamide] |  |  |  | 6.6 min |  |  |
| 4.9 µM |  | CCC(=CC(CSc1nnnn1C)=NO)C(C)[N+](=O)[O-] (single isomer, unassigned) [Example 12 A, 1-Methyl-5-(4-ethyl-2-hydroxyimino-5-nitro-3-hexen-1-yl)thiotetrazole] | 37.7% |  | 16.7% | 5.9 min |  | IC50 [3, 5]: 1100 nM; Hypotensive effect T 1/2 ([2]; 0.032 mg/kg): 7.4 min |
|  | 5 µM | CCC(=CC(CSc1nnnn1C)=NO)C(C)[N+](=O)[O-] (single isomer, unassigned) [Example 12 B, 1-Methyl-5-(4-ethyl-2-hydroxyimino-5-nitro-3-hexen-1-yl)thiotetrazole] |  |  |  |  |  | IC50 ([3]; Inducer: ADP 2.5 μM): 1700 nM |
| 0.11 µM |  | CCC(=CC(CSc1nc2ccccc2s1)=NO)C(C)[N+](=O)[O-] (single isomer, unassigned) [Example 14 B, 2-(4-Ethyl-2-hydroxyimino-5-nitro-3-hexen-1-yl)thio-benzothiazole] | 33.9% |  | 4.7% |  |  |  |

The remaining lines, values behind:

| Structure (SMILES) | IC50 ([1]; Rattus norvegicus) | IC50 [1] | inhibition in vivo at 0.1 mg/kg ([2]; 0.1 mg/kg) | inhibition in vivo at 0.32 mg/kg ([2]; 0.32 mg/kg) | inhibition in vivo at 0.032 mg/kg ([2]; 0.032 mg/kg) | Hypotensive effect T 1/2 ([2]; 0.1 mg/kg) | Hypotensive effect T 1/2 ([2]; 0.32 mg/kg) | also measured |
| --- | --- | --- | --- | --- | --- | --- | --- | --- |
| CCC(=CC(COC(=O)c1cccnc1)=NO)C(C)[N+](=O)[O-] (single isomer, unassigned) [Example 1 A, 4-ethyl-2-hydroxyimino-5-nitro-3-hexen-1-yl 3-pyridinecarboxylate] | 16 µM |  | 21.7% | 37% |  |  |  |  |
| CCC(=CC(COC(=O)c1cccnc1)=NO)C(C)[N+](=O)[O-] (single isomer, unassigned) [Example 1 B, 4-ethyl-2-hydroxyimino-5-nitro-3-hexen-1-yl 3-pyridinecarboxylate] |  | 10 µM |  |  | 11.8% |  |  |  |
| CCC(=CC(COC(N)=O)=NO)C(C)[N+](=O)[O-] (single isomer, unassigned) [Example 2 A, 4-Ethyl-2-hydroxyimino-5-nitro-3-hexen-1-yl carbamate] |  |  |  |  |  |  |  | IC50 ([3]; Homo sapiens, Platelet, Inducer: Collagen 0.5 μg/ml): 4600 nM; IC50 ([3]; Inducer: ADP 2.5 μM): 8600 nM |
| CCC(=CC(COC(N)=O)=NO)C(C)[N+](=O)[O-] (single isomer, unassigned) [Example 2 B, 4-Ethyl-2-hydroxyimino-5-nitro-3-hexen-1-yl carbamate] | 11.1 µM |  | 35.4% |  | 30.9% | 7.3 min |  | IC50 ([3]; Inducer: ADP 2.5 μM): 2400 nM; IC50 ([3]; Inducer: Collagen 0.5 μg/ml): 3600 nM; Hypotensive effect T 1/2 ([2]; 0.032 mg/kg): 5.3 min |
| CCNC(=O)OCC(C=C(CC)C(C)[N+](=O)[O-])=NO (single isomer, unassigned) [Example 3 A, 4-Ethyl-2-hydroxyimino-5-nitro-3-hexen-1-yl ethylcarbamate] | 18.8 µM |  | 29.3% |  | 12.6% | 7.2 min |  | Hypotensive effect T 1/2 ([2]; 0.032 mg/kg): 4.8 min |
| CCC(=CC(CN1C(=O)c2ccccc2C1=O)=NO)C(C)[N+](=O)[O-] (single isomer, unassigned) [Example 4 A, N-(4-Ethyl-2-hydroxyimino-5-nitro-3-hexen-1-yl)-phthalimide] | 1.2 µM |  | 24.6% | 40.8% |  | 6.7 min | 5.1 min |  |
| CCC(=CC(CN1C(=O)c2ccccc2C1=O)=NO)C(C)[N+](=O)[O-] (single isomer, unassigned) [Example 4 B, N-(4-Ethyl-2-hydroxyimino-5-nitro-3-hexen-1-yl)-phthalimide] |  | 1.8 µM |  |  |  |  |  |  |
| CCC(=CC(CNC(C)=O)=NO)C(C)[N+](=O)[O-] (single isomer, unassigned) [Example 5 A, 1-Acetylamino-4-ethyl-2-hydroxyimino-5-nitro-3-hexene] | 46.9 µM |  |  | 49.9% |  | 7.6 min | 12.8 min | Hypotensive effect Dur. ([4]; 3.2 mg/kg): 30.8 min; Hypotensive effect T 1/2 ([4]; 3.2 mg/kg): 16 min; Hypotensive effect Dur. ([4]; 10 mg/kg): 83.9 min; Hypotensive effect T 1/2 ([4]; 10 mg/kg): 25 min; Hypotensive effect Dur. ([4]; 32 mg/kg): 144.2 min; Hypotensive effect T 1/2 ([4]; 32 mg/kg): 75.6 min; inhibition in vivo at 3.2 mg/kg ([4]; 3.2 mg/kg): 27.2%; inhibition in vivo at 10 mg/kg ([4]; 10 mg/kg): 54.4%; inhibition in vivo at 32 mg/kg ([4]; 32 mg/kg): 60.6%; IC50 [3, 5]: 5100 nM |
| CCC(=CC(CNC(C)=O)=NO)C(C)[N+](=O)[O-] (single isomer, unassigned) [Example 5 B, 1-Acetylamino-4-ethyl-2-hydroxyimino-5-nitro-3-hexene] |  | 88.7 µM | 34.3% |  |  | 6.2 min |  |  |
| CCC(=CC(CNC(=O)c1cccnc1)=NO)C(C)[N+](=O)[O-] (stereo not shown) [Example 6 A] |  | 25.1 µM | 16.9% | 36.3% |  | 6.8 min | 11.2 min | Hypotensive effect Dur. ([4]; 3.2 mg/kg): 29.3 min; Hypotensive effect T 1/2 ([4]; 3.2 mg/kg): 20 min; Hypotensive effect Dur. ([4]; 10 mg/kg): 116.0 min; Hypotensive effect T 1/2 ([4]; 10 mg/kg): 30 min; Hypotensive effect Dur. ([4]; 32 mg/kg): > 300 min; Hypotensive effect T 1/2 ([4]; 32 mg/kg): 117 min; inhibition in vivo at 3.2 mg/kg ([4]; 3.2 mg/kg): 22.3%; inhibition in vivo at 10 mg/kg ([4]; 10 mg/kg): 27.2%; inhibition in vivo at 32 mg/kg ([4]; 32 mg/kg): 29.6%; IC50 [3, 5]: 1800 nM |
| CCC(=CC(CNC(=O)c1ccc(C)nc1)=NO)C(C)[N+](=O)[O-] (stereo not shown) [Example 35, N-(4-Ethyl-2-hydroxyimino-5-nitro-3-hexen-1-yl)-6-methyl-3-pyridinecarboxamide] |  |  |  | 41.7% |  |  | 13.7 min | Hypotensive effect T 1/2 ([4]; 10 mg/kg): 24.1 min; inhibition in vivo at 10 mg/kg ([4]; 10 mg/kg): 31.1% |
